According to patent US11497787B2, “Functionalized poly-ADP-ribose polymers for drug delivery” (University of Southern California, priority 2019, dated 2022):
Like-named read-outs stand apart in the source and are kept apart here.

How the values were obtained:
wild type PARP1 = wild type PARP1 (Homo sapiens, UniProt P09874); test: Automodification and click-chemistry based immunoblot activity analysis
Protocol: Automodification and Immunoblotting Activity Analysis. […] 20 μL of the reaction was taken out and saved for SDS-PAGE analysis. The remaining reaction mixtures were further labeled with azide-biotin (for 1-4) or phosphine-PEG3-Biotin (for 5 and 6) through copper(I)-catalyzed azide alkyne cycloaddition (CuAAC) and Staudinger reaction. The CuAAC reactions were performed for one hours at room temperature in 40 μL volume, which contain 30 μL PARP1 automodification mixtures, 2 mM THPTA, 1 mM CuSO4, 100 μM azide-biotin, and 10 mM sodium ascorbate in PBS. […] The levels of auto-PARylation were evaluated by immunoblots using a streptavidin-HRP conjugate for detection of the biotinylated PARP1 via click chemistry and Staudinger reaction.

[1] = molecular target: T1, purified human full-length PARP1 (Homo sapiens, UniProt P09874); test: HPLC-based kinetic assay, NADase activity; format: biochemical; conditions: hydrolysis catalyzed by PARP1, 30° C.
T1 construct: His6 (C); made in house; host or cells: E. coli BL21 (DE3), pET-28a(+)
T1 sequence (P09874 whole entry): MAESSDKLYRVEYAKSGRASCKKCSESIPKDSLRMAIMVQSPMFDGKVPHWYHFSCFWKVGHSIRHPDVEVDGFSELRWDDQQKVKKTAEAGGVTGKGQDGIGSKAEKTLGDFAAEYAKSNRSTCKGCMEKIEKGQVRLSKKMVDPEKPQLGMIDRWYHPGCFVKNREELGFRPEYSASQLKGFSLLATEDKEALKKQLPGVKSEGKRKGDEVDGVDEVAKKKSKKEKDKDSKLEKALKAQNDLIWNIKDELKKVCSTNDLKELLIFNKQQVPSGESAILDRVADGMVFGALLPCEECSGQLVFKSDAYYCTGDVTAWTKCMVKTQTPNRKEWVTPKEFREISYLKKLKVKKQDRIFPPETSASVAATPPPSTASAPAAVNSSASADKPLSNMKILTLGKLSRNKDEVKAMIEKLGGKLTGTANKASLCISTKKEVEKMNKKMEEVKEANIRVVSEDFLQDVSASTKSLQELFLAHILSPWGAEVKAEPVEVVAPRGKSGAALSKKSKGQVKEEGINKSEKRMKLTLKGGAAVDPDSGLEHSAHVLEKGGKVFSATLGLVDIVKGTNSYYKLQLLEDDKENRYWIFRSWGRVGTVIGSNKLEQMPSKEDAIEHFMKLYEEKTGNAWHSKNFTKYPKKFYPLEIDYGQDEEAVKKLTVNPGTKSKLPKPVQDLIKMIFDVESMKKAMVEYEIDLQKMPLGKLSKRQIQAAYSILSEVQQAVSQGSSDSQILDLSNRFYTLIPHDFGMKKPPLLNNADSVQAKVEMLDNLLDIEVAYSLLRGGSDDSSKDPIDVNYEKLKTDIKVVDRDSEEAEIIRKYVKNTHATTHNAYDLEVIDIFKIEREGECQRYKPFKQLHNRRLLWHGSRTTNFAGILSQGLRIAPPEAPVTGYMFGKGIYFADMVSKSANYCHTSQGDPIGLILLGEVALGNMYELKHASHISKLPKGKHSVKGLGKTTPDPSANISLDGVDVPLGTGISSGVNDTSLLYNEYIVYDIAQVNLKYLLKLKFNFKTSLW
Protocol: (§1) High-performance Liquid Chromatography (HPLC)-based Kinetic Assays. Auto-PARylation of PARP1 was carried out in 80 μL assay solutions (30 mM HEPES, pH 8.0, 5 mM MgCl2, 5 mM CaCl2, 1 mM DTT, 100 ng/μL of activated DNA, 100 ng/μL BSA) containing varied concentrations of NAD^+ (50, 100, 250, 450, 600, and 750 μM) or NAD^+ analogues (2, 6; see Table 1) at 30° C. with purified PARP1 enzymes. The reactions were quenched at different time points (NAD^+: 0, 2.5, 5, 10, 15, and 20 min; 2: 0, 60, 120, 180, 240, and 300 min; 6: 0, 5, 10, 15, 20 and 30 min) using 20% ice-cold TCA. After centrifugation, the reaction mixtures were analyzed by reverse phase HPLC using a semipreparative C18 Kinetex column (5 μm, 100 Å, 150×10.0 mm, from Phenomenex Inc, Torrance, Calif.) (mobile phase A: 0.1% formic acid (aq); mobile phase B: 0.1% formic acid in acetonitrile; flow rate=2.0 ml/min; 0-8 min: 0% B, 8-12 min: 0-50% B, 12-13 min: 50-2.5% B, 13-18 min: 2.5-40% B, 18-20 min: 40-0% B) with detection of UV absorbance at 260 nm. […] NADase reaction rates were determined based on the increase in peak areas of the assigned peaks of ADPr and ADPr analogues, while reaction rates for PARP activities were measured based on the decrease in peak areas of the assigned peaks of NAD^+ and NAD^+ analogues excluding NADase activity. […]

[2] = molecular target: T1, purified human full-length PARP1; test: HPLC-based kinetic assay, PARP activity (auto-PARylation); format: biochemical; conditions: substrate of PARP1, 30° C.
Protocol: as §1

[3] = molecular target: T1, purified human full-length PARP1; conditions: literature value; read-out: Km with PARP1, previously reported value; cited from earlier work

wild type PARP1, sequence (P09874 whole entry): as above

Structure (SMILES)	PARP1 automodification signal (substrate use), biotinylation-based immunoblot (wild type PARP1; 250 μM NAD^+ or analogue, 5 μM PARP1, 30° C., 2 hours)	Km [1]	kcat, NADase activity [1]	Km [2]	kcat, PARP activity [2]	Km [3]	suppression of PARP1 catalytic activity / automodification signal (wild type PARP1; automodification with NAD2 and NAD6, versus no-inhibitor controls)
NC(=O)c1ccc[n+]([C@@H]2O[C@H](COP(=O)([O-])OP(=O)(O)OC[C@H]3O[C@@H](n4cnc5c(N)ncnc54)[C@H](O)[C@@H]3O)[C@@H](O)[C@H]2O)c1 [NAD^+, nicotinamide adenine dinucleotide]	no automodification signals	472 ± 187 µM	0.0065 ± 0.0013 s⁻¹	145 ± 36 µM	0.0783 ± 0.0067 s⁻¹	97 ± 7 µM	
C[C@]1(c2nc3c(C(N)=O)cccc3[nH]2)CCCN1 [veliparib]							potently suppressed
